What was measured:
NCI-H23 [1] = experiment: In vitro total growth inhibition against non-small-cell lung cancer NCI-H23 cell lines was reported.; assay type: functional; details: Homo sapiens, read-out: Log TGI (converted)
K562 = experiment: In vitro total growth inhibition against leukemia K-562 cell lines was reported.; assay type: functional; details: Homo sapiens, read-out: Log TGI (converted)
HT-29 [2] = experiment: In vitro total growth inhibition against colon cancer HT-29 cell lines was reported.; assay type: functional; details: Homo sapiens, read-out: Log TGI (converted)
NCI-H46 = experiment: In vitro total growth inhibition against non-small-cell lung cancer […] cell lines was reported.; assay type: functional; details: Homo sapiens, read-out: Log TGI (converted)
SK-MEL-28 = experiment: In vitro total growth inhibition against melanoma SK-MEL-28 cell lines was reported.; assay type: functional; details: Homo sapiens, read-out: Log TGI (converted)
LOX IMVI [3] = experiment: In vitro growth inhibition against melanoma LOX IMVI cell line was reported.; assay type: functional; details: Homo sapiens
NCI-H226 [4] = experiment: In vitro total growth inhibition against non-small-cell lung cancer NCI-H226 cell lines was reported.; assay type: functional; details: Homo sapiens, read-out: Log TGI (converted)
HOP-62 [5] = experiment: In vitro growth inhibition against non-small-cell lung cancer HOP-62 cell line was reported.; assay type: functional; details: Homo sapiens
NCI-H522 [6] = experiment: In vitro total growth inhibition against non-small-cell lung cancer NCI-522 cell lines was reported.; assay type: functional; details: Homo sapiens, read-out: Log TGI (converted)
U-251 [7] = experiment: Log of molar concentration leading to 50% cell death against CNS cancer U251 cell line was reported; assay type: functional; details: Homo sapiens, read-out: Log LC50 (the source's name) (converted)
OVCAR-4 = experiment: In vitro total growth inhibition against ovarian cancer OVCAR-4 cell lines was reported.; assay type: functional; details: Homo sapiens, read-out: Log TGI (converted)
HL-60 [8] = experiment: Log of molar concentration leading to 50% cell death against leukemia HL-60(TB) cell line was reported; assay type: functional; details: Homo sapiens, read-out: Log LC50 (the source's name) (converted)
RPMI-8226 [9] = experiment: In vitro growth inhibition against leukemia […] cell line was reported.; assay type: functional; details: Homo sapiens
SNB-19 = experiment: In vitro growth inhibition against CNS cancer SNB-19 cell line was reported.; assay type: functional; details: Homo sapiens
ACHN [10] = experiment: In vitro growth inhibition against renal cancer ACHN cell line was reported.; assay type: functional; details: Homo sapiens
U-251 [11] = experiment: In vitro growth inhibition against CNS cancer U251 cell line was reported.; assay type: functional; details: Homo sapiens
MDA-MB-435 = experiment: In vitro total growth inhibition against breast cancer MDA-MB-435 cell lines was reported.; details: Homo sapiens, read-out: Log TGI (converted)
CAKI-1 = experiment: In vitro growth inhibition against renal cancer CAKI-1 cell line was reported.; assay type: functional; details: Homo sapiens
NCI-H522 [12] = experiment: Log of molar concentration leading to 50% cell death against non-small-cell lung cancer NCI-522 cell line was reported; assay type: functional; details: Homo sapiens, read-out: Log LC50 (the source's name) (converted)
SR [13] = experiment: In vitro growth inhibition against leukemia SR cell line was reported.; assay type: functional; details: Homo sapiens
SF-295 = experiment: In vitro growth inhibition against CNS cancer SF-295 cell line was reported.; assay type: functional; details: Homo sapiens
SK-MEL-2 = experiment: In vitro total growth inhibition against melanoma SK-MEL-2 cell lines was reported.; assay type: functional; details: Homo sapiens, read-out: Log TGI (converted)
Hs-578T = experiment: In vitro growth inhibition against breast cancer HS 578T cell line was reported.; assay type: functional; details: Homo sapiens
MDA-MB-231 = experiment: In vitro growth inhibition against breast cancer MDA-MB-231/ATCC cell line was reported.; assay type: functional; details: Homo sapiens
RPMI-8226 [14] = experiment: Log of molar concentration leading to 50% cell death against leukemia […] cell line was reported; assay type: functional; details: Homo sapiens, read-out: Log LC50 (the source's name) (converted)
UO-31 = experiment: In vitro total growth inhibition against renal cancer UO-31 cell lines was reported.; assay type: functional; details: Homo sapiens, read-out: Log TGI (converted)
HOP-92 = experiment: In vitro growth inhibition against non-small-cell lung cancer HOP-92 cell line was reported.; assay type: functional; details: Homo sapiens
DU-145 [15] = experiment: In vitro total growth inhibition against prostate cancer […] cell lines was reported.; assay type: functional; details: Homo sapiens, read-out: Log TGI (converted)
NCI-H23 [16] = experiment: In vitro growth inhibition against non-small-cell lung cancer NCI-H23 cell line was reported.; assay type: functional; details: Homo sapiens
NCI-H226 [17] = experiment: In vitro growth inhibition against non-small-cell lung cancer NCI-H226 cell line was reported.; assay type: functional; details: Homo sapiens
M14 [18] = experiment: In vitro total growth inhibition against melanoma M14 cell lines was reported.; assay type: functional; details: Homo sapiens, read-out: Log TGI (converted)
MCF7 [19] = experiment: Log of molar concentration leading to 50% cell death against breast cancer MCF 7 cell line was reported; assay type: functional; details: Homo sapiens, read-out: Log LC50 (the source's name) (converted)
UACC-257 = experiment: In vitro total growth inhibition against melanoma UACC-257 cell lines was reported.; assay type: functional; details: Homo sapiens, read-out: Log TGI (converted)
MDA-N = experiment: In vitro total growth inhibition against breast cancer MDA-N cell lines was reported.; assay type: functional; details: Homo sapiens, read-out: Log TGI (converted)
M14 [20] = experiment: Log of molar concentration leading to 50% cell death against melanoma M14 cell line was reported; assay type: functional; details: Homo sapiens, read-out: Log LC50 (the source's name) (converted)
HL-60 [21] = experiment: In vitro growth inhibition against leukemia HL-60(TB) cell line was reported.; assay type: functional; details: Homo sapiens
UACC-62 = experiment: In vitro total growth inhibition against melanoma UACC-62 cell lines was reported.; assay type: functional; details: Homo sapiens, read-out: Log TGI (converted)
HCC 2998 [22] = experiment: In vitro growth inhibition against colon cancer HCC2998 cell line was reported.; assay type: functional; details: Homo sapiens
ACHN [23] = experiment: In vitro total growth inhibition against renal cancer ACHN cell lines was reported.; assay type: functional; details: Homo sapiens, read-out: Log TGI (converted)
HCT-15 = experiment: In vitro growth inhibition against colon cancer […] cell line was reported.; assay type: functional; details: Homo sapiens
RXF 393 [24] = experiment: Log of molar concentration leading to 50% cell death against renal cancer RXF 393 cell line was reported; assay type: functional; details: Homo sapiens, read-out: Log LC50 (the source's name) (converted)
HCC 2998 [25] = experiment: Log of molar concentration leading to 50% cell death against colon cancer HCC2998 cell line was reported; assay type: functional; details: Homo sapiens, read-out: Log LC50 (the source's name) (converted)
Tumor Cell line [26] = experiment: Log of molar concentration leading to 50% cell death was reported; assay type: functional; details: Homo sapiens, read-out: Log LC50 (the source's name) (converted)
PC-3 = experiment: Log of molar concentration leading to 50% cell death against prostate cancer PC-3 cell line was reported; assay type: functional; details: Homo sapiens, read-out: Log LC50 (the source's name) (converted)
SF-539 = experiment: In vitro growth inhibition against CNS cancer SF-539 cell line was reported.; assay type: functional; details: Homo sapiens
IGROV-1 = experiment: Log of molar concentration leading to 50% cell death against ovarian cancer IGROV1 cell line was reported; assay type: functional; details: Homo sapiens, read-out: Log LC50 (the source's name) (converted)
HT-29 [27] = experiment: In vitro growth inhibition against colon cancer HT-29 cell line was reported.; assay type: functional; details: Homo sapiens
Malme-3M = experiment: In vitro growth inhibition against melanoma MALME 3M cell line was reported.; assay type: functional; details: Homo sapiens
DU-145 [28] = experiment: Log of molar concentration leading to 50% cell death against prostate cancer […] cell line was reported; assay type: functional; details: Homo sapiens, read-out: Log LC50 (the source's name) (converted)
SR [29] = experiment: In vitro total growth inhibition against leukemia SR cell lines was reported.; assay type: functional; details: Homo sapiens, read-out: Log TGI (converted)
RXF 393 [30] = experiment: In vitro growth inhibition against renal cancer RXF 393 cell line was reported.; assay type: functional; details: Homo sapiens
786-0 [31] = experiment: Log of molar concentration leading to 50% cell death against renal cancer […] cell line was reported; assay type: functional; details: Homo sapiens, read-out: Log LC50 (the source's name) (converted)
786-0 [32] = experiment: In vitro total growth inhibition against renal cancer […] cell lines was reported.; assay type: functional; details: Homo sapiens, read-out: Log TGI (converted)
CCRF-CEM = experiment: In vitro growth inhibition against leukemia CCRF-CEM cell line was reported.; assay type: functional; details: Homo sapiens
NCI-H322M = experiment: Log of molar concentration leading to 50% cell death against non-small-cell lung cancer NCI-H322M cell line was reported; assay type: functional; details: Homo sapiens, read-out: Log LC50 (the source's name) (converted)
MCF7 [33] = experiment: In vitro total growth inhibition against breast cancer MCF 7 cell lines was reported.; assay type: functional; details: Homo sapiens, read-out: Log TGI (converted)
HOP-62 [34] = experiment: In vitro total growth inhibition against non-small-cell lung cancer HOP-62 cell lines was reported.; assay type: functional; details: Homo sapiens, read-out: Log TGI (converted)
LOX IMVI [35] = experiment: In vitro total growth inhibition against melanoma LOX IMVI cell lines was reported.; assay type: functional; details: Homo sapiens, read-out: Log TGI (converted)
OVCAR-8 = experiment: In vitro growth inhibition against ovarian cancer OVCAR-8 cell line was reported.; assay type: functional; details: Homo sapiens
A549 = experiment: In vitro growth inhibition against non-small-cell lung cancer A 549/ATCC cell line was reported.; assay type: functional; details: Homo sapiens
Tumor Cell line [36] = experiment: In vitro total growth inhibition for 50 cell lines was reported as log of molar concentration; assay type: functional, Homo sapiens

Work on O=C(Nc1cccc2nsnc12)c1cc2c(cc1Cl)Sc1nccn1S2(=O)=O yielded a TGI (NCI-H23 [1]) of 25.1 µM, a TGI (K562) of 20 µM and a TGI (HT-29 [2]) of 5.25 µM. It also gave a TGI (NCI-H46) of 4.27 µM, a TGI (SK-MEL-28) of 6.76 µM and a GI50 (LOX IMVI [3]) of 5.25 µM. It also gave a TGI (NCI-H226 [4]) of 33.1 µM, a GI50 (HOP-62 [5]) of 1.66 µM and a TGI (NCI-H522 [6]) of 22.4 µM. For the same compound, the CC50 (U-251 [7]) was 44.7 µM, the TGI (OVCAR-4) was 10.2 µM and the CC50 (HL-60 [8]) was 7.41 µM. The GI50 (RPMI-8226 [9]) was 2.09 µM, the GI50 (SNB-19) was 12 µM and the GI50 (ACHN [10]) was 12.6 µM. For the same compound, the GI50 (U-251 [11]) was 4.57 µM, the TGI (MDA-MB-435) was 49 µM and the GI50 (CAKI-1) was 4.79 µM. For the same compound, the CC50 (NCI-H522 [12]) was 89.1 µM, the GI50 (SR [13]) was 2 µM and the GI50 (SF-295) was 11.2 µM. The TGI (SK-MEL-2) was 25.7 µM, the GI50 (Hs-578T) was 4.17 µM and the GI50 (MDA-MB-231) was 6.03 µM. The CC50 (RPMI-8226 [14]) was 7.94 µM, the TGI (UO-31) was 4.37 µM and the GI50 (HOP-92) was 5.89 µM. For the same compound, the TGI (DU-145 [15]) was 3.24 µM, the GI50 (NCI-H23 [16]) was 11.7 µM and the GI50 (NCI-H226 [17]) was 19.1 µM. It also gave a TGI (M14 [18]) of 46.8 µM, a CC50 (MCF7 [19]) of 6.61 µM and a TGI (UACC-257) of 3.39 µM. For the same compound, the TGI (MDA-N) was 27.5 µM, the CC50 (M14 [20]) was 69.2 µM and the GI50 (HL-60 [21]) was 1.86 µM. It also gave a TGI (UACC-62) of 17.8 µM, a GI50 (HCC 2998 [22]) of 3.39 µM and a TGI (ACHN [23]) of 36.3 µM. The GI50 (HCT-15) was 5.25 µM, the CC50 (RXF 393 [24]) was 56.2 µM and the CC50 (HCC 2998 [25]) was 55 µM. It also gave a CC50 (Tumor Cell line [26]) of 95.5 µM, a CC50 (PC-3) of 6.46 µM and a GI50 (SF-539) of 2.24 µM. For the same compound, the CC50 (IGROV-1) was 79.4 µM, the GI50 (HT-29 [27]) was 2.24 µM and the GI50 (Malme-3M) was 66.1 µM. The CC50 (DU-145 [28]) was 6.03 µM, the TGI (SR [29]) was 4.79 µM and the GI50 (RXF 393 [30]) was 4.68 µM. The CC50 (786-0 [31]) was 55 µM, the TGI (786-0 [32]) was 30.2 µM and the GI50 (CCRF-CEM) was 3.24 µM. It also gave a CC50 (NCI-H322M) of 5.75 µM, a TGI (MCF7 [33]) of 3.39 µM and a TGI (HOP-62 [34]) of 3.8 µM. For the same compound, the TGI (LOX IMVI [35]) was 40.7 µM, the GI50 (OVCAR-8) was 2.34 µM and the GI50 (A549) was 12.6 µM. The “Log GTI” value (Tumor Cell line [36]) was -4.31.

Source: ChEMBL document CHEMBL1135808, “A new type of mixed anhydride and its applications to the synthesis of 7-substituted 8-chloro-5,5-dioxoimidazo[1,2-b][1,4,2]benzodithiazines with in vitro antitumor activity” (2002)
